Measured values as given in patent US12390447B2, “Sirtuin 6 protein deacylase (SIRT6) activators” (Wisconsin Alumni Research Foundation, priority 2019, dated 2025).

Columns and labels:
SIRT6 [1] = biological target: T1, SIRT6 (Homo sapiens, UniProt Q8N6T7); experiment: Small molecule SIRT6 activator screen (H3K9ac peptide deacetylation, HPLC); type: biochemical; conditions: compound 100 μM; SIRT6 1 μM; H3K9ac peptide 20 μM; 0.5 mM NAD+
Experimental: Mastermix containing SIRT6, buffer, and H3K9ac peptide were distributed to wells using Microflex peristaltic dispenser (Beckman). Plates were spun and preheated to 37° C. before addition of NAD^+ using peristaltic dispenser. After 60 minutes reactions were quenched with 2% TFA final using peristaltic dispenser then sealed and spun again before in-house HPLC separation and quantification of substrate and product peptides. Reaction conditions were 1 μM SIRT6, 0.5 mM NAD^+, […] (4-16), 20 mM potassium phosphate pH 7.5, 10% DMSO, and either 10 or 100 μM compound determined by 10-fold dilution of stock library concentration.
All sirtuin deacylation assays were carried out at 37° C. in 20 mM potassium phosphate pH 7.5 with 0.5 mM NAD^+, 10% DMSO, and 20 μM H3K9ac or H3K9myr peptides, unless otherwise noted in legend, and quenched by the addition of 2% TFA final. Steady-state reactions were constrained to less than 20% substrate turnover to prevent product inhibition. A variety of times were required to monitor SIRT6 deacetylation (2-60 minutes) under this restraint given the ability to strongly activate catalysis. In these cases, specific activities were determined and either reported as is or as fold-activation of specific activity. […] Deacetylation reactions were analyzed using a gradient of 33-100% B (30% acetonitrile with 0.05% TFA) in 8 min at 1.6 mL min^−1. Demyristoylation reactions were analyzed using a gradient of 3 to 100% B (acetonitrile with 0.05% TFA) in 10 min at 1.6 mL min^−1. The product and substrate peaks were quantified and ratio of these allowed for quantification of product formation.

SIRT6 [2] = biological target: T1, SIRT6; experiment: SIRT6 deacetylation of H3K9ac peptide, fold-activation versus activator concentration; type: biochemical; conditions: for EC50: H3K9ac peptide 20 μM
Experimental: (1A) Compound libraries BML-2803, BML-2800, and an additional set of 178 molecules were screened at 100 μM for their ability to stimulate SIRT6 (1 μM) deacetylation of H3K9ac peptide (20 μM) in the presence of 0.5 mM NAD^+. SIRT6 activity was measured by HPLC quantification of H3K9ac and deacetylated product (inset) and fold activations relative to DMSO control were determined and compiled. (1B) Fold-activation of SIRT6 (1 μM) determined in the presence of either 0-400 μM CL4, 0-150 μM TTNPB, 0-100 μM Lysophosphatidic acid (LPA), or 0-200 μM linoleoylglycine (LGly). Maximum fold-activation and EC50 determined by sigmoidal curve fit. (1C) Steady-state kinetic analysis of SIRT6 (1 μM) deacetylation was conducted with 0-250 μM H3K9ac peptide in the presence of 100 μM CL4, 50 μM TTNPB, 50 μM LPA, or 50 μM LGly. Constants Km, H3K9ac and kcat were determined by fitting data to Michaelis-Menten equation. (1D) Fold-activations of SIRT1 (0.1 μM), SIRT2 (0.2 μM), SIRT3 (1 μM), SIRT5 (2 μM), and SIRT6 (1 μM) determined in the presence of CL4 (100 μM), TTNPB (50 μM), and LPA (50 μM) relative to DMSO control against 20 μM H3K9ac peptide and 0.5 mM NAD^+. Mean values reported with error bars representing standard deviation of at least three replicates.
All sirtuin deacylation assays were carried out at 37° C. in 20 mM potassium phosphate pH 7.5 with 0.5 mM NAD^+, 10% DMSO, and 20 μM H3K9ac or H3K9myr peptides, unless otherwise noted in legend, and quenched by the addition of 2% TFA final. Steady-state reactions were constrained to less than 20% substrate turnover to prevent product inhibition. A variety of times were required to monitor SIRT6 deacetylation (2-60 minutes) under this restraint given the ability to strongly activate catalysis. In these cases, specific activities were determined and either reported as is or as fold-activation of specific activity. Deacylation reactions were analyzed by reversed phase high-performance liquid chromatography on a Kinetex C18 column (100 Å, 100×4.6 mm, 2.6 μm, Phenomenex) by monitoring the formation of the deacylated product at 214 nm. Deacetylation reactions were analyzed using a gradient of 33-100% B (30% acetonitrile with 0.05% TFA) in 8 min at 1.6 mL min^−1. Demyristoylation reactions were analyzed using a gradient of 3 to 100% B (acetonitrile with 0.05% TFA) in 10 min at 1.6 mL min^−1. The product and substrate peaks were quantified and ratio of these allowed for quantification of product formation. […]

[3] = SIRT6 1 μM, 0.5 mM NAD+, sigmoidal curve fit

T1 sequence (Q8N6T7 whole entry): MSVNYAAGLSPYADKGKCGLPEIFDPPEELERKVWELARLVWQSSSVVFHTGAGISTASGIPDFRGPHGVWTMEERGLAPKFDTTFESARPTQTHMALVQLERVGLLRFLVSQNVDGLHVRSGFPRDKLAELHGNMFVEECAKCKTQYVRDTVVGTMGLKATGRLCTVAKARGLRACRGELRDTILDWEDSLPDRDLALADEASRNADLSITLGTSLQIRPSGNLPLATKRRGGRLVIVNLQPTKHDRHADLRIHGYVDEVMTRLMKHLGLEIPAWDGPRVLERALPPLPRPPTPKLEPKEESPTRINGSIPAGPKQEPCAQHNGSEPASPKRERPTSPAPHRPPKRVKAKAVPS

O=C(O)c1ccc2c(c1)C(=O)N(c1ccc(NC(=O)c3ccc(Cl)cc3Cl)c(Cl)c1)C2=O [CL-4, 2-(3-chloro-4-(2,4-dichlorobenzamido)phenyl)-1,3-dioxoisoindoline-5-carboxylic acid]
F.A. (fold-activation of SIRT6 relative to DMSO control) (SIRT6 [1]): 18 fold
concentration required to stimulate 4-fold activation of SIRT6 (SIRT6 [2]; SIRT6 1 μM, H3K9ac 20 μM, 0.5 mM NAD+): 35 µM
EC50 (SIRT6 [2]; [3]): 97 ± 2 µM

CCCCC/C=C\C/C=C\CCCCCCCC(=O)NCC(=O)O [N-Linoleoylglycine, linoleoyl-glycine, reference compound]
F.A. (fold-activation of SIRT6 relative to DMSO control) (SIRT6 [1]): 29 fold
EC50 (SIRT6 [2]; [3]): 88 ± 4 µM
FAmax (maximum fold-activation) (SIRT6 [2]; SIRT6 1 μM, sigmoidal curve fit): 17 ± 0.8 fold

O=C(O)c1ccc2c(c1)C(=O)N(c1ccc(N(C(=O)c3c(Cl)cc(Cl)cc3Cl)C(=O)c3c(Cl)cc(Cl)cc3Cl)c(Cl)c1)C2=O [CL-5D, 2-(3-chloro-4-(2,4,6-trichloro-N-(2,4,6-trichlorobenzoyl)benzamido)phenyl)-1,3-dioxoisoindoline-5-carboxylic acid]
SIRT6 deacetylase activity at high activator concentration (SIRT6 [2]; 400 μM compound): inhibited
increased potency over CL-4 (SIRT6 [2]; by concentration required for 4-fold activation of SIRT6 deacetylase activity): 7 fold
